Assay results taken from patent publication US9186318B2, “Quinolyl-containing hydroxamic acid compound and preparation method thereof, and pharmaceutical composition containing this compound and use thereof” (Beijing Konruns Pharmaceutical Co., Ltd, priority 2011, dated 2015).

Tests used:
[1] = Body weight of mice in the anti-tumor experiment; assay type: in vivo, BALB/c-nu/nu mice; settings: treatment group, 75 mg/kg oral once a day; after 14 days treatment
Protocol: GTL-16 gastric cancer cells were firstly cultured: GTL-16 cell lines were inoculated in RPM 1-1640 culture medium contain 10% FBS, 100 U/ml penicillin, 100 U/ml streptomycin and cultured under the condition of 37° C., 5% CO2 and 100% humidity in a carbon dioxide incubator. The logarithmic growth phase reached upon 24 h, and the cells completely covered the bottom of the culture flask at approximately 48 h after inoculation. Those with 80% of GTL-16 cells covering the bottom of the culture flask were digested and centrifuged at 1000 r/min for 5 min. The cells were diluted to 2×10^7/ml, and implanted subcutaneously in the right anterior axillary of the nude mice at 0.1 mL per mouse. Starting from 12 days after inoculation of tumor cells, the weight of the tumor-bearing nude mice and the size of tumors were measured, and the mice with tumor sizes ranging from 150-200 mm^3 were randomly divided into vehicle control group (Vehicle was 0.25% methanesulfonic acid) and treatment group in which the mice were treated with N1′-[3-fluoro-4-[[7-[[1-[2-(hydroxyamino)-2-oxoethyl]-4-piperidyl]methoxy]-6-methoxy-4-quinolyl]oxy]phenyl]-N1-(4-fluorophenyl)cyclopropane-1,1-dicarboxamide prepared in Example 1 with 6 mice each group. […] The tumor size of each animal was measured every 2 days. […]

[2] = system: GTL-16 gastric cancer cells; assay: Anti-tumor experiment in xenograft nude mice; assay type: in vivo, BALB/c-nu/nu mice; settings: GTL-16 xenograft nude mice, 75 mg/kg oral gavage once a day; for Tumor Growth Inhibition (TGI): 14 days; for average tumor volume: after 14 days, mean±SD, n=6
Excerpt: In this example, N1′-[3-fluoro-4-[[7-[[1-[2-(hydroxyamino)-2-oxoethyl]-4-piperidyl]methoxy]-6-methoxy-4-quinolyl]oxy]phenyl]-N1-(4-fluorophenyl)cyclopropane-1,1-dicarboxamide prepared in Example 1 was used to conduct anti-tumor experiment in xenograft nude mice animal models of human gastric cancer. The method and results of the experiment were as follows.
4 to 5-week-old SPF level female BALB/c-nu/nu mice with body weight of 12 g to 16 g were purchased from Beijing Vital River Laboratory Animal Technology Co., Ltd., with the production license number: SCXK (Beijing) 2006. GTL-16 gastric cancer cells were purchased from Shanghai Institutes for Biological Sciences Cell Resource Center. RPM 1-1640 cell culture media, fetal bovine serum (FBS) and trypsin digestion solution were purchased from Gibco. Various antibiotics were purchased from Sigma.
GTL-16 gastric cancer cells were firstly cultured: GTL-16 cell lines were inoculated in RPM 1-1640 culture medium contain 10% FBS, 100 U/ml penicillin, 100 U/ml streptomycin and cultured under the condition of 37° C., 5% CO2 and 100% humidity in a carbon dioxide incubator. The logarithmic growth phase reached upon 24 h, and the cells completely covered the bottom of the culture flask at approximately 48 h after inoculation. Those with 80% of GTL-16 cells covering the bottom of the culture flask were digested and centrifuged at 1000 r/min for 5 min. The cells were diluted to 2×10^7/ml, and implanted subcutaneously in the right anterior axillary of the nude mice at 0.1 mL per mouse. Starting from 12 days after inoculation of tumor cells, the weight of the tumor-bearing nude mice and the size of tumors were measured, and the mice with tumor sizes ranging from 150-200 mm^3 were randomly divided into vehicle control group (Vehicle was 0.25% methanesulfonic acid) and treatment group in which the mice were treated with N1′-[3-fluoro-4-[[7-[[1-[2-(hydroxyamino)-2-oxoethyl]-4-piperidyl]methoxy]-6-methoxy-4-quinolyl]oxy]phenyl]-N1-(4-fluorophenyl)cyclopropane-1,1-dicarboxamide prepared in Example 1 with 6 mice each group. Thereafter, the nude mice were weighed daily and the oral administrations were performed at 0.1 mL/10 g body-weight through oral gavage method (75 mg/kg, once a day). The tumor size of each animal was measured every 2 days. 14 days later, the tumor-bearing mice were sacrificed by cervical dislocation and the tumors were removed and weighed. The calculation method of Tumor Growth Inhibition (TGI) was as follows: the experimental data were represented by mean±SD; TGI=[(Vvehicle group−Vtreatment group)÷Vvehicle group]×100%, wherein Vvehicle group represented the mice tumor volume of the vehicle group and Vtreatment group represented the mice tumor volume of the treatment group. […]

Row | SMILES | weight variation of mice [1] | Tumor Growth Inhibition (TGI) [2] | average tumor volume [2]
1 | COc1cc2c(Oc3ccc(NC(=O)C4(C(=O)Nc5ccc(F)cc5)CC4)cc3F)ccnc2cc1OCC1CCN(CC(=O)NO)CC1 [Example 1, N1′-[3-fluoro-4-[[7-[[1-[2-(hydroxyamino)-2-oxoethyl]-4-piperidyl]methoxy]-6-methoxy-4-quinolyl]oxy]phenyl]-N1-(4-fluorophenyl)cyclopropane-1,1-dicarboxamide] | < 10% | 65% | 630.9±354.6 mm^3
2 | COc1cc2c(Oc3ccc(NC(=O)C4(C(=O)Nc5ccc(F)cc5)CC4)cc3F)ccnc2cc1OCCCC(=O)NO [Example 9, N1′-[3-fluoro-4-[[7-[4-(hydroxyamino)-4-oxobutoxy]-6-methoxy-4-quinolyl]oxy]phenyl]-N1-(4-fluorophenyl)cyclopropane-1,1-dicarboxamide] |  | 87% | 241.1±131.4 mm^3
